Measured values: article PMC6069857, “Effects of novel HDAC inhibitors on urothelial carcinoma cells” (Clinical Epigenetics, 2018)

How the values were obtained:
[1] = target: HDAC1 (Homo sapiens, UniProt Q13547); set-up: purchased Reaction Biology Corp. (Malvern, PA); conditions: previously reported; given for HDAC1/2 together; cited from earlier work
[2] = target: HDAC11 (Homo sapiens, UniProt Q96DB2); assay: In vitro fluorescence-based HDAC inhibition assay (Reaction Biology); conditions: read-out: IC50 HDAC11; experiment performed once
Sequence of HDAC11 (Q96DB2 whole entry): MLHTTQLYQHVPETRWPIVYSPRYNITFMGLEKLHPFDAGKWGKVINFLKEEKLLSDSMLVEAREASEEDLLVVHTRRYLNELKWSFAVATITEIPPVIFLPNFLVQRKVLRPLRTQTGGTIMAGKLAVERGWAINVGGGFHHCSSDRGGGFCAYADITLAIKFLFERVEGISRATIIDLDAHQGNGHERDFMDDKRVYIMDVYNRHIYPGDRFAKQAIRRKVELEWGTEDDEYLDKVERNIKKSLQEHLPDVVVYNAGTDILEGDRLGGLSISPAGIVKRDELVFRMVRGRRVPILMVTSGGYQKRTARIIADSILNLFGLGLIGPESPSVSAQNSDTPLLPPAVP

[3] = target: HDAC2 (Homo sapiens, UniProt Q92769); assay: as above; conditions: read-out: IC50 HDAC2; experiment performed once
Sequence of HDAC2 (Q92769 whole entry): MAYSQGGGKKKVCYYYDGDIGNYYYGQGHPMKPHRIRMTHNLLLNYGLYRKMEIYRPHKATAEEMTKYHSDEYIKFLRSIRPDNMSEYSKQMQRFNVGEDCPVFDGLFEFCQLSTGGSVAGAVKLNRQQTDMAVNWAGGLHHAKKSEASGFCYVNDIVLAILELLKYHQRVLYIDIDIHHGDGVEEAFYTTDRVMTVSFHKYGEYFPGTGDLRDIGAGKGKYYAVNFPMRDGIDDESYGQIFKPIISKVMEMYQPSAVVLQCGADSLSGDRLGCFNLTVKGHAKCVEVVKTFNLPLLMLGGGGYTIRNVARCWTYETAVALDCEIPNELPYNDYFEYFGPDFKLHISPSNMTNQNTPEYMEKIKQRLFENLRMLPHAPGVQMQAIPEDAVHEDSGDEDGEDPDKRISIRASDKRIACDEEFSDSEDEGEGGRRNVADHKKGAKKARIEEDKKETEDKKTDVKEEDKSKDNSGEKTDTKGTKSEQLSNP

[4] = target: T1, HDAC4 (Homo sapiens, UniProt P56524); conditions: older assays, given for HDAC4/5 together; cited from earlier work
T1 construct: purchased Reaction Biology Corp. (Malvern, PA)
T1 sequence (P56524 whole entry): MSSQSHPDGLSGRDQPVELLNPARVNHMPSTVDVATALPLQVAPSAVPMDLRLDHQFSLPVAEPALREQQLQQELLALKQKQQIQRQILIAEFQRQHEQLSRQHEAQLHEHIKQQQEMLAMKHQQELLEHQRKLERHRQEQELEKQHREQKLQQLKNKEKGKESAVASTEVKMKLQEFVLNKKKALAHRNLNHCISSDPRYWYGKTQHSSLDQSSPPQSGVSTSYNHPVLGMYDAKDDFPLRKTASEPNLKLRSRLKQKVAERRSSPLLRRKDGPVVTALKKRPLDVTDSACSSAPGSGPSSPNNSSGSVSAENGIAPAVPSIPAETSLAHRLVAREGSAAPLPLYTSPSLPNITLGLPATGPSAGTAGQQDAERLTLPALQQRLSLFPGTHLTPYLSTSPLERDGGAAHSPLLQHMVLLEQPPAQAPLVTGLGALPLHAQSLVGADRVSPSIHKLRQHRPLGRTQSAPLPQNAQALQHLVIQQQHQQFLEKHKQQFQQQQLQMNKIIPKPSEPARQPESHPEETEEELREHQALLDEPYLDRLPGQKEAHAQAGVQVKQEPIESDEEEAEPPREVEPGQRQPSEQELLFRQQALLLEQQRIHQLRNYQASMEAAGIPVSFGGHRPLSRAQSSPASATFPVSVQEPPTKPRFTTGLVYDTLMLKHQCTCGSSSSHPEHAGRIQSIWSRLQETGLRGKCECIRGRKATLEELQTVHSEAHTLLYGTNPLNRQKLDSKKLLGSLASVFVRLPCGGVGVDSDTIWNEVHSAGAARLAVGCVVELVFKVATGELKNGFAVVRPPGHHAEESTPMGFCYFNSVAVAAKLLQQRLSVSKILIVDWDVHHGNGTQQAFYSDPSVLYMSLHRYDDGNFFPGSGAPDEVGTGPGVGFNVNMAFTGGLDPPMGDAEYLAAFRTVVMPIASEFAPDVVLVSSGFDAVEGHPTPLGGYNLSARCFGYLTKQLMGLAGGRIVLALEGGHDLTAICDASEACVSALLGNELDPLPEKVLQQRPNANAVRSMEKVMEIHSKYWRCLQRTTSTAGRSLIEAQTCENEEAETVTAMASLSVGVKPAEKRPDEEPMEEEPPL

[5] = target: HDAC3 (Homo sapiens, UniProt O15379); assay: In vitro fluorescence-based HDAC inhibition assay (Reaction Biology); conditions: read-out: IC50 HDAC3; experiment performed once
Sequence of HDAC3 (O15379 whole entry): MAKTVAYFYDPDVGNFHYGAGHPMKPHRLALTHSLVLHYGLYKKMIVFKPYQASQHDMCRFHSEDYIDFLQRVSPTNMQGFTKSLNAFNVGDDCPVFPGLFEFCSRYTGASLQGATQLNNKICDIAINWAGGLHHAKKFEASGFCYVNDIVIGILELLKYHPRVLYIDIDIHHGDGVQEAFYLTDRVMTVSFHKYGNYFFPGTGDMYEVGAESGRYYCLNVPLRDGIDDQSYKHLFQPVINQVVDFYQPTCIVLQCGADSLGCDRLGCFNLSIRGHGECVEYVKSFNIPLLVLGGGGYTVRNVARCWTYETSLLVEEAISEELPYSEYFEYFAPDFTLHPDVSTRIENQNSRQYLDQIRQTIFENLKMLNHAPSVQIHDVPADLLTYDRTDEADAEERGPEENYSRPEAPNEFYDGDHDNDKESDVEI
Sequence of HDAC3 (Q9Y618 395-489 partner limits assumed): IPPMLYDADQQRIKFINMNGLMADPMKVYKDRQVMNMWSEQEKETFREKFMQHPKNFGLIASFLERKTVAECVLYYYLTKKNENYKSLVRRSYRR

[6] = target: HDAC6 (Homo sapiens, UniProt Q9UBN7); set-up: purchased Reaction Biology Corp. (Malvern, PA); conditions: previously reported; cited from earlier work
Sequence of HDAC6 (Q9UBN7 whole entry): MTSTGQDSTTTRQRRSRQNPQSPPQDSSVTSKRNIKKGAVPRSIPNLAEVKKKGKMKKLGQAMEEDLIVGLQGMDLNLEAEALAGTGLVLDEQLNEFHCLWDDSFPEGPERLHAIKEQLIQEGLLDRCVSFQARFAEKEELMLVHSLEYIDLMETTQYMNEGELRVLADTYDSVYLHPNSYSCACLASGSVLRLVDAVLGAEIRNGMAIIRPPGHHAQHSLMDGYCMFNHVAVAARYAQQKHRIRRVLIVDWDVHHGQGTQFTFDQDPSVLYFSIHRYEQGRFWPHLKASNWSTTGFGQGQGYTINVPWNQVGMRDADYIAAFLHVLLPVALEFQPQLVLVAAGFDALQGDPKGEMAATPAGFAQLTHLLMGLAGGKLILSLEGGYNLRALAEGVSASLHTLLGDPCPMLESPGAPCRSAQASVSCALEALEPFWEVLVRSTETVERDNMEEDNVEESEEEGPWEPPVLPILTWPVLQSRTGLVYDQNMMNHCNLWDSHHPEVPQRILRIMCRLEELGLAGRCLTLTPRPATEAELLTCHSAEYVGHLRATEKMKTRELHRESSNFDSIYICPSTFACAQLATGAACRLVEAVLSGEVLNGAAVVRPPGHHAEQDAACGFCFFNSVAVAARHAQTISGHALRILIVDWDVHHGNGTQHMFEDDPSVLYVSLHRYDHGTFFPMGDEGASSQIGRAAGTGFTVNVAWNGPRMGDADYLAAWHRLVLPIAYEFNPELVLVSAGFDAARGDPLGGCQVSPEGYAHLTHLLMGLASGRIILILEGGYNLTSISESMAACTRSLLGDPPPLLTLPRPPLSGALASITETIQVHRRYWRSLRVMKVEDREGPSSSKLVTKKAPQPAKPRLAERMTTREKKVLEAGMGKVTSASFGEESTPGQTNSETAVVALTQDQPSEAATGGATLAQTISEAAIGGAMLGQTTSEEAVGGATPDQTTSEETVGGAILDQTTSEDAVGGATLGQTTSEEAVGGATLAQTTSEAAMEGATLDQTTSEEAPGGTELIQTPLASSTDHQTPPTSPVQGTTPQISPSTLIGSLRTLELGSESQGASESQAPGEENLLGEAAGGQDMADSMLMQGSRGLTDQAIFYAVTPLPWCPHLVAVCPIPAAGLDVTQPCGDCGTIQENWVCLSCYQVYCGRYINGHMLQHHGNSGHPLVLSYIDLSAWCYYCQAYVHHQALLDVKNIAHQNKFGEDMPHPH

[7] = test system: UCCs VM-CUB1, UM-UC-3, and 639-V; conditions: 19i 2 μM, 24 and 48 h
Source text: Caspase activity after inhibitor treatment was quantified by the Caspase-Glo 3/7 assay and normalized to cell viability measured by CellTiter-Glo® reagent (Promega, Mannheim, Germany) as previously described. Briefly, following exposure to inhibitors, defined aliquots of trypsinized cells were transferred to 96-well plates for viability and caspase-3/7 measurements according to the manufacturer’s protocol.

[8] = test system: UCCs; assay: Western blot of acetylated α-tubulin and histones H3/H4; assay type: cell-based, human; conditions: 48 h, 19i 1 or 2 μM
Procedure: Total protein extraction, purification of histones, and Western blot analysis were performed as previously described. Briefly, cells were incubated for 30 min on ice in RIPA-buffer (150 mM NaCl, 1% Triton X-100, 0.5% desoxycholate, 1% Nonidet P-40, 0.1% SDS, 1 mM EDTA, 50 mM TRIS (pH 7.6)) containing 10 μl/ml protease inhibitor cocktail (#P-8340, Sigma Aldrich, St. Louis, MO). Histones were extracted for detection of histone H3 and H4 acetylation by a modified published protocol employing sulfuric acid extraction and TCA-precipitation. Concentrations of total protein and histones were determined by BCA protein assay (Thermo Fisher Scientific, Carlsbad, CA). Subsequently, total cell proteins (15 μg) or extracted histones (2 μg) were separated by SDS-PAGE (total proteins 10–12% gels, histones 15% gels), transferred to PVDF membranes (Merck Millipore, Berlin, Germany), and were incubated with primary antibodies (at RT for 1 h or 4 °C overnight, see Additional file 3: Table S2) following blocking with 5% non-fat milk or BSA (bovine serum albumin) in TBST (150 mM NaCl, 10 mM TRIS, pH 7.4 and 0.1% Tween-20). For signal detection, membranes were incubated with a suitable horseradish peroxidase-conjugated secondary antibody (see Additional file 2: Table S1) at RT for 1 h and signals were visualized by SuperSignal™ West Femto (Thermo Fisher Scientific, Carlsbad, CA) and WesternBright Quantum kit (Biozym, Hessisch Oldendorf, Germany).

Sequence of HDAC1 (Q13547 whole entry): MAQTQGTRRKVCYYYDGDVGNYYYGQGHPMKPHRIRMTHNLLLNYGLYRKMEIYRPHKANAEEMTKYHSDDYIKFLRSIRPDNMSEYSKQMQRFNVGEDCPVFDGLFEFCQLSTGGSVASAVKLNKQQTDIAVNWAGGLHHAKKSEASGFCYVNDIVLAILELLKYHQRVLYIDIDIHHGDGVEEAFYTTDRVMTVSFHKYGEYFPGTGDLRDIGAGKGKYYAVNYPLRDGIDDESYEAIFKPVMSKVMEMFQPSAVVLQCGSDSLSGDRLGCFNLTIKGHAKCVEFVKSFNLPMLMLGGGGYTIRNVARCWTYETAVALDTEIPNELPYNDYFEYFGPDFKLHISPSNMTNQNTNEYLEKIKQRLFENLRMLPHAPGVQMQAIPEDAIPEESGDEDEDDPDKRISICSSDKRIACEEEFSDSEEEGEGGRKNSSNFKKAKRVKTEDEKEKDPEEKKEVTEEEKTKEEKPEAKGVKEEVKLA

## Cc1cc(C)cc(C(=O)NOCCCCCC(=O)NO)c1 [19i]
[1]
  in vitro IC50 HDAC1: sub-micromolar
[2]
  IC50: 109000 nM
[3]
  IC50: 402 nM
[4]
  in vitro IC50 HDAC4: nanomolar range
[5]
  IC50: 236 nM
[6]
  in vitro IC50 HDAC6: sub-micromolar
[7]
  caspase 3/7 activity: significant, albeit moderately increased
[8]
  global acetylation of histones H3 and H4: enhanced
[8]; SAHA 2.5 μM
  acetylation of α-tubulin: strongly induced
